pIC50: −log10 of the molar value. Like-named read-outs stand apart in the source and are kept apart here.
Tests used:
IMP-1 = IMP-1 (Serratia marcescens, UniProt P52699); assay: biochemical; format: biochemical; conditions: read-out: IMP-1 IC50
[1] = tested on: Escherichia coli expressing NDM-1 (CLB30005); assay: Antibiotic potentiation activity: synergistic concentration (MITC95) with imipenem, OD600 growth; format: cell-based; conditions: for Escherichia coli expressing NDM-1 (CLB 30005) MITC95: concentration giving 95% inhibition of bacterial growth; for Escherichia coli MITC95: Escherichia coli expressing NDM-1 (CLB30005), 95% growth inhibition
In short: (§1)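 Inoculum: saline suspension of overnight colonies, 1:100 into 1.1× CAMHB. Imipenem 4 μg/ml final (alt. 1 μg/ml) + compound; 35 °C, 22–24 h; absorbance read-out.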

[2] = tested on: Serratia marcescens expressing IMP-1 (CL5741); assay: as above; format: cell-based; conditions: for Serratia marcescens expressing IMP-1 (CL5741) MITC95: concentration giving 95% inhibition of bacterial growth; for Serratia marcescens MITC95: Serratia marcescens expressing IMP-1 (CL5741), 95% growth inhibition
In short: as §1

[3] = tested on: Klebsiella pneumoniae expressing VIM-1 (IHMA599644); assay: as above; format: cell-based; conditions: for Klebsiella pneumoniae expressing VIM-1 (IHMA 599644) MITC95: concentration giving 95% inhibition of bacterial growth; for Klebsiella pneumoniae MITC95: Klebsiella pneumoniae expressing VIM-1 (IHMA599644), 95% growth inhibition
In short: as §1

NDM-1 = NDM-1 (Klebsiella pneumoniae, UniProt C7C422); assay: biochemical; format: biochemical; conditions: read-out: NDM-1 IC50
VIM-1 = VIM-1 (Pseudomonas aeruginosa (strain ATCC 15692 / DSM 22644 / CIP 104116 / JCM 14847 / LMG 12228 / 1C / PRS 101 / PAO1), UniProt A0A0F7KYQ8); assay: Enzyme activity: determination of IC50, fluorescence assay with CCF2-FA substrate (VIM-1); format: biochemical
Method: Enzyme Activity: Determination of IC50
The Class B enzyme activities were measured in the presence of the test inhibitor in a fluorescence assay against a commercially available substrate consisting of a cephalosporin core linking 7-hydroxycoumarin to fluorescein (CCF2-FA). The enzyme (NDM-1, IMP-1 or VIM-1) and the substrate were diluted in 100 mM KH2PO4 buffer (pH 7) containing 0.005% Tween-20 and 10 μM ZnSO4. […] The test inhibitor was dissolved in dimethylsulfoxide and diluted 1:50 in the assay, resulting in a final concentration range of 20 uM to 0.00063 uM. In a 384-well microplate, the test inhibitor was incubated with the metallo-β-lactamase enzyme and the substrate for 2 hours at 25° C. Fluorescence at 460 nm following excitation at 405 nm was measured. The IC50 value was determined from semi-logarithmic plots of enzyme inhibition versus inhibitor concentration, with a curve generated using a 4-parameter fit.

[4] = fluorescence assay with CCF2-FA substrate
[5] = fluorescence assay with CCF2-FA substrate, read-out: VIM-1 IC50
[6] = VIM-1 IC50, fluorescence assay with CCF2-FA substrate
[7] = IMP-1 enzyme, CCF2-FA fluorescence assay
[8] = NDM-1 enzyme, CCF2-FA fluorescence assay
[9] = VIM-1 enzyme, CCF2-FA fluorescence assay, read-out: VIM-1 IC50

Sequence of NDM-1 (C7C422 whole entry, looked up, species assumed): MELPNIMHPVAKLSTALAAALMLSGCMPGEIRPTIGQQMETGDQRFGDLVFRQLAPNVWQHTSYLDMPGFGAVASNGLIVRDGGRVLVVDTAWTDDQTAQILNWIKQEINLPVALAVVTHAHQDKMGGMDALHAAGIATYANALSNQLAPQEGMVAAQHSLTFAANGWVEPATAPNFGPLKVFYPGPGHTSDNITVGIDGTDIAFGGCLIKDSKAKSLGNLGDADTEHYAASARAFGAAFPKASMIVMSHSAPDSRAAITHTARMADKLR
Sequence of IMP-1 (P52699 whole entry, looked up): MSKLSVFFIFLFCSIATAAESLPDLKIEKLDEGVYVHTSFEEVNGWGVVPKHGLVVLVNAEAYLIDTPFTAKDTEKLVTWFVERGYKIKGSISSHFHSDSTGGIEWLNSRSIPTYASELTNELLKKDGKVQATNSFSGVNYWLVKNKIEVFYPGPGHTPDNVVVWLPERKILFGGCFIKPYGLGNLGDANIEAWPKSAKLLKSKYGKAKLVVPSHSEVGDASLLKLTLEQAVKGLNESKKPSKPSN

| Structure (SMILES) | pIC50 (IMP-1; [4]) | Escherichia coli expressing NDM-1 (CLB 30005) MITC95 [1] [µM] | Serratia marcescens expressing IMP-1 (CL5741) MITC95 [2] [µM] | Klebsiella pneumoniae expressing VIM-1 (IHMA 599644) MITC95 [3] [µM] | pIC50 (NDM-1; [4]) | pIC50 (VIM-1; [5]) | pIC50 (VIM-1; [6]) | pIC50 (IMP-1; [7]) | Escherichia coli MITC95 [1] [µM] | Serratia marcescens MITC95 [2] [µM] | Klebsiella pneumoniae MITC95 [3] [µM] | pIC50 (NDM-1; [8]) | pIC50 (VIM-1; [9]) |
| --- | --- | --- | --- | --- | --- | --- | --- | --- | --- | --- | --- | --- | --- |
| Cc1ccc(-c2ccnc(S(N)(=O)=O)c2-c2nnn[nH]2)cc1 [Example 190, 3-(1H-Tetrazol-5-yl)-4-(p-tolyl)pyridine-2-sulfonamide] | 5.50 | 10.42 | 100 | >200 | 6.63 | 5.89 | – | – | – | – | – | – | – |
| NS(=O)(=O)c1nccc(-c2ccc3c(c2)CNC3=O)c1-c1nnn[nH]1 [Example 192, 4-(1-oxoisoindolin-5-yl)-3-(1H-tetrazol-5-yl)pyridine-2-sulfonamide] | 6.36 | 1.953 | 50 | 50 | 7.44 | 7.01 | – | – | – | – | – | – | – |
| NS(=O)(=O)c1nccc(-c2ccncc2)c1-c1nnn[nH]1 [Example 194, 3-(1H-tetrazol-5-yl)-[4,4′-bipyridine]-2-sulfonamide] | 5.64 | 0.7813 | 75 | 62.5 | 6.61 | 6.04 | – | – | – | – | – | – | – |
| NS(=O)(=O)c1nccc(-c2ccc(CO)nc2)c1-c1nnn[nH]1 [Example 195, 6-(hydroxymethyl)-3′-(1H-tetrazol-5-yl)-[3,4′-bipyridine]-2′-sulfonamide] | 5.58 | 0.3906 | 50 | 12.5 | 7.10 | 6.54 | – | – | – | – | – | – | – |
| NS(=O)(=O)c1nccc(-c2ccc3c(c2)CNC3=O)c1-c1nnn[nH]1 [Example 196, 4-(1-oxoisoindolin-5-yl)-3-(1H-tetrazol-5-yl)pyridine-2-sulfonamide] | 5.80 | 1.953 | 125 | 25 | 7.34 | 7.30 | – | – | – | – | – | – | – |
| NS(=O)(=O)c1nccc(-c2ccc(C3CCNCC3)cc2)c1-c1nnn[nH]1 [Example 197, 4-(4-(piperidin-4-yl)phenyl)-3-(1H-tetrazol-5-yl)pyridine-2-sulfonamide] | 6.24 | 0.3906 | 1.563 | 1.563 | 6.89 | 7.15 | – | – | – | – | – | – | – |
| NS(=O)(=O)c1nccc(-c2ccc(C3CCNC3)cc2)c1-c1nnn[nH]1 (stereo not drawn) [Example 198, 4-(4-(pyrrolidin-3-yl)phenyl)-3-(1H-tetrazol-5-yl)pyridine-2-sulfonamide] | 5.93 | 0.3906 | 3.125 | 2.344 | 7.17 | 7.00 | – | – | – | – | – | – | – |
| NS(=O)(=O)c1nccc(-c2ccc3[nH]ncc3c2)c1-c1nn[nH]n1 [Example 199, 4-(1H-indazol-5-yl)-3-(2H-tetrazol-5-yl)pyridine-2 sulfonamide] | 6.49 | 0.3906 | 6.25 | 3.125 | 7.89 | 7.61 | – | – | – | – | – | – | – |
| NS(=O)(=O)c1nccc(-c2ccc3ncccc3c2)c1-c1nn[nH]n1 [Example 200, 4-(quinolin-6-yl)-3-(2H-tetrazol-5-yl)pyridine-2-sulfonamide] | 6.02 | 2.083 | 75 | 50 | 7.52 | 7.45 | – | – | – | – | – | – | – |
| NS(=O)(=O)c1nccc(-c2ccc3c(c2)CC(=O)N3)c1-c1nn[nH]n1 [Example 201, 4-(2-oxoindolin-5-yl)-3-(2H-tetrazol-5-yl)pyridine-2-sulfonamide] | 5.84 | 0.7813 | 50 | 18.75 | 7.18 | – | 7.17 | – | – | – | – | – | – |
| CS(=O)(=O)Nc1cccc(-c2ccnc(S(N)(=O)=O)c2-c2nn[nH]n2)c1 [Example 202, 4-(3-(methylsulfonamido)phenyl)-3-(2H-tetrazol-5-yl)pyridine-2-sulfonamide] | 7.62 | 0.3906 | 2.344 | 25 | 7.94 | 6.93 | – | – | – | – | – | – | – |
| NS(=O)(=O)c1nccc(-c2ccc3cn[nH]c3c2)c1-c1nn[nH]n1 [Example 203, 4-(1H-indazol-6-yl)-3-(2H-tetrazol-5-yl)pyridine-2-sulfonamide] | 5.85 | 0.3906 | 50 | 9.375 | 7.73 | 7.36 | – | – | – | – | – | – | – |
| NC(=O)c1cccc(-c2ccnc(S(N)(=O)=O)c2-c2nn[nH]n2)c1 [Example 204, 3-(2-sulfamoyl-3-(2H-tetrazol-5-yl)pyridin-4-yl)benzamide] | 5.54 | 0.3906 | 37.5 | 12.5 | 7.23 | 6.62 | – | – | – | – | – | – | – |
| NS(=O)(=O)c1nccc(-c2ccc3c(c2)OCC(=O)N3)c1-c1nn[nH]n1 [Example 205, 4-(3-oxo-3,4-dihydro-2H-benzo[b][1,4]oxazin-7-yl)-3-(2H-tetrazol-5-yl)pyridine-2-sulfonamide] | 6.95 | 0.3906 | 6.25 | 9.375 | 7.84 | 7.62 | – | – | – | – | – | – | – |
| NS(=O)(=O)c1nccc(-c2ccc(N3CCOCC3)nc2)c1-c1nn[nH]n1 [Example 208, 6-morpholino-3′-(2H-tetrazol-5-yl)-[3,4′-bipyridine]-2′-sulfonamide] | 6.23 | 3.646 | 37.5 | >200 | 7.02 | – | 6.25 | – | – | – | – | – | – |
| NS(=O)(=O)c1nccc(-c2ccc3[nH]nc(C(F)(F)F)c3c2)c1-c1nn[nH]n1 [Example 209, 3-(2H-tetrazol-5-yl)-4-(3-(trifluoromethyl)-1H-indazol-5-yl)pyridine-2-sulfonamide] | 6.29 | 2.604 | 75 | 37.5 | 7.58 | 8.26 | – | – | – | – | – | – | – |
| Cc1ccccc1-c1ccnc(S(N)(=O)=O)c1-c1nn[nH]n1 [Example 210, 3-(2H-tetrazol-5-yl)-4-(o-tolyl)pyridine-2-sulfonamide] | 6.38 | 0.5208 | 25 | 15.63 | 7.93 | 7.59 | – | – | – | – | – | – | – |
| NS(=O)(=O)c1nccc(-c2cnc3[nH]ccc3c2)c1-c1nn[nH]n1 [Example 212, 4-(1H-pyrrolo[2,3-b]pyridin-5-yl)-3-(2H-tetrazol-5-yl)pyridine-2-sulfonamide] | 6.38 | 0.3906 | 18.75 | 3.125 | 8.10 | 7.88 | – | – | – | – | – | – | – |
| NS(=O)(=O)c1nccc(-c2ccc3cccnc3c2)c1-c1nn[nH]n1 [Example 213, 4-(quinolin-7-yl)-3-(2H-tetrazol-5-yl)pyridine-2-sulfonamide] | 6.25 | 1.042 | 37.5 | 100 | 7.29 | 7.20 | – | – | – | – | – | – | – |
| NS(=O)(=O)c1nccc(N2CCC3(CCNCC3)CC2)c1-c1nn[nH]n1 [Example 245, 4-(3,9-diazaspiro[5.5]undecan-3-yl)-3-(2H-tetrazol-5-yl)pyridine-2-sulfonamide] | – | – | – | – | – | – | – | 5.01 | 0.3906 | 50 | 12.5 | 6.58 | 6.34 |
| NS(=O)(=O)c1cccc(-c2ccn3cncc3c2)c1-c1nn[nH]n1 [Example 247, 3-(Imidazo[1,5-a]pyridin-7-yl)-2-(2H-tetrazol-5-yl)benzenesulfonamide] | – | – | – | – | – | – | – | 6.32 | 0.3906 | 25 | 37.5 | 7.84 | 6.94 |
